Experimental data: article PMC2096561 (2004)

Target: GPR80 (GPR99, proposed P2Y15) (Homo sapiens, UniProt Q96P68)
Test: [3H]inositol phosphate accumulation in GPR80-expressing CHO and HEK293 cells
Format: cell-based

Chain of GPR80 (GPR99, proposed P2Y15) (Q96P68 whole entry): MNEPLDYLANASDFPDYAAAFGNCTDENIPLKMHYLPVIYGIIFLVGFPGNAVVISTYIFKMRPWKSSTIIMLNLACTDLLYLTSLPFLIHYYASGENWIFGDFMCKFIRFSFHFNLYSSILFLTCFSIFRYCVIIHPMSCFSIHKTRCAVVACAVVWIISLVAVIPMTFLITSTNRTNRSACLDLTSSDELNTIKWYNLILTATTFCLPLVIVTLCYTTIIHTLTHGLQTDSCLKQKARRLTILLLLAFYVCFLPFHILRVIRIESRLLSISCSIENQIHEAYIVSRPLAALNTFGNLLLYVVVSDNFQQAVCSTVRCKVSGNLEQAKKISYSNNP

`O=C(O)CCC(=O)C(=O)O` [α-ketoglutarate] showed an EC50 of 140 ± 10 µM.
